Data published in PMC8042770, “Odorant Receptors for Detecting Flowering Plant Cues Are Functionally Conserved across Moths and Butterflies” (Molecular Biology and Evolution, 2020).
Like-named read-outs stand apart in the source and are kept apart here.

Columns and labels:
[1] = target: HarmOR59 (Helicoverpa armigera, UniProt A0A7T3KAU6); experiment: Xenopus oocyte two-electrode voltage clamp, HarmOR59 + Orco; type: cell-based
Procedure: (§1) In order to expand our analysis on the response properties of HarmORs, we conducted dose–response analyses for the 28 functional HarmORs. […] Six HarmORs (OR3, 22, 48, 50, 56, and 66) could not be activated by any ligand at 10^−5 M. For the other 22 HarmORs, dose–response curves were generated and EC50 values of their major ligands were calculated (fig. 2A and supplementary table S2, Supplementary Material online). The HarmOR repertoire was highly efficient in terpene detection, since the lowest EC50 values were obtained for such compounds. Many of these terpenes have been proposed to be defensive chemicals of plants. […] DMNT is also one of the oviposition deterring compounds found in larval frass of some Lepidoptera species such as S. littoralis ([Anderson et al. 1993]).
(§2) Functional characterization of individual ORs was performed by heterologous expression in Xenopus oocytes combined with a two-electrode voltage-clamp system ([Wang et al. 2010]). Briefly, the full-length gene of each OR and Orco were subcloned into the eukaryotic expression vector pT7TS. cRNAs were generated from linearized expression vectors using the mMESSAGE mMACHINE T7 kit (Ambion, Austin, TX). Then, the cRNA mixture of ORx and Orco (27.6 ng each) was injected (Nanoliter 2010, WPI Inc., Sarasota, FL) into oocytes (stage V–VII). The respective Orcos of different species were used for functional studies of OR42 orthologs except for the four butterfly species (V. tameamea, P. xuthus, D. plexippus, and P. rapae), in which we used the Orco from P. xuthus. After incubation in nutrient solution at 18 °C for 3–5 days, the response profile of each oocyte to multiple plant odorants was recorded via a two-electrode voltage clamp (OC-725C oocyte clamp, Warner Instruments, Hamden, CT) at a holding potential of −80 mV. Data were acquired by using a Digidata 1440 A and were analyzed by pCLAMP 10.2 software (Axon Instruments Inc., Union City, CA).
(§3) Stock solutions of each odorant were prepared at 1 M using DMSO as a solvent, and each odorant was diluted in 1× Ringer’s solution to the indicated concentrations for electrophysiological recording. For functional screening of each HarmOR, a panel of 67 odorants belonging to three types of chemical classes: terpenes, aromatics, and aliphatics (short-chain fatty acid) were used (supplementary table S1, Supplementary Material online). For functional studies of OR42 orthologs from different species, six odorants including PAA, benzaldehyde, (E)-2-hexen-1-al, cinnamaldehyde, 2-phenylethanol, and heptanal were used.

[2] = target: HarmOR52 (Helicoverpa armigera, UniProt A0A7T3KAH2); experiment: Xenopus oocyte two-electrode voltage clamp, HarmOR52 + Orco; type: cell-based
Sequence of HarmOR52 (A0A7T3KAH2 entry or part of it): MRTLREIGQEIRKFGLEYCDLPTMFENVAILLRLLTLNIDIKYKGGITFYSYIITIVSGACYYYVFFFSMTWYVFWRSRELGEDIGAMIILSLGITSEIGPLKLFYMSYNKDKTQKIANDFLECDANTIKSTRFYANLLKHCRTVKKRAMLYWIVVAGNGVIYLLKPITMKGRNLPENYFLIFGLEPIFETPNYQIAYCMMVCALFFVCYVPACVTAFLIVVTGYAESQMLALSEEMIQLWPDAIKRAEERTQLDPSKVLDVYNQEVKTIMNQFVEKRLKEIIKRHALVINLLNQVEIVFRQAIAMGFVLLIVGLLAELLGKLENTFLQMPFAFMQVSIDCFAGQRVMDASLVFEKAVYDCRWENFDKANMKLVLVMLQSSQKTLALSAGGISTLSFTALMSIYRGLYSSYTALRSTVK
Procedure: as §1, §2, §3

[3] = target: HarmOR31 (Helicoverpa armigera, UniProt A0A7T3N2E9); experiment: Xenopus oocyte two-electrode voltage clamp, HarmOR31 + Orco; type: cell-based; details: HarmOR31; dose response in oocytes; unit M; read-out: EC50
Sequence of HarmOR31 (A0A7T3N2E9 entry or part of it): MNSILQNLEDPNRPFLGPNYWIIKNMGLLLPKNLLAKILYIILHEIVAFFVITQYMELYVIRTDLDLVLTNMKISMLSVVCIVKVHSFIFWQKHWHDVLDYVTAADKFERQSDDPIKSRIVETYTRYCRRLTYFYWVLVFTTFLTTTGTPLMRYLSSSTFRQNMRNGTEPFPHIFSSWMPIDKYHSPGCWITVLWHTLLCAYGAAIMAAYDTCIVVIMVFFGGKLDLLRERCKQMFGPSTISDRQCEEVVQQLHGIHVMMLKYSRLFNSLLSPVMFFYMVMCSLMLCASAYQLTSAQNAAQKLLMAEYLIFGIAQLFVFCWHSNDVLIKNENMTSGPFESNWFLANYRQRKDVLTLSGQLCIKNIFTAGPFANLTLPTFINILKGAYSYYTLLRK
Source text: (§4) In order to expand our analysis on the response properties of HarmORs, we conducted dose–response analyses for the 28 functional HarmORs. […] Many of these terpenes have been proposed to be defensive chemicals of plants.
(§5) Briefly, the full-length gene of each OR and Orco were subcloned into the eukaryotic expression vector pT7TS. cRNAs were generated from linearized expression vectors using the mMESSAGE mMACHINE T7 kit (Ambion, Austin, TX). […] The respective Orcos of different species were used for functional studies of OR42 orthologs except for the four butterfly species (V. tameamea, P. xuthus, D. plexippus, and P. rapae), in which we used the Orco from P. xuthus.
as §3

[4] = target: HarmOR36 (Helicoverpa armigera, UniProt A0A7T3N0K7); experiment: Xenopus oocyte two-electrode voltage clamp, HarmOR36 + Orco; type: cell-based; details: dose response in oocytes, unit M
Sequence of HarmOR36 (A0A7T3N0K7 entry or part of it): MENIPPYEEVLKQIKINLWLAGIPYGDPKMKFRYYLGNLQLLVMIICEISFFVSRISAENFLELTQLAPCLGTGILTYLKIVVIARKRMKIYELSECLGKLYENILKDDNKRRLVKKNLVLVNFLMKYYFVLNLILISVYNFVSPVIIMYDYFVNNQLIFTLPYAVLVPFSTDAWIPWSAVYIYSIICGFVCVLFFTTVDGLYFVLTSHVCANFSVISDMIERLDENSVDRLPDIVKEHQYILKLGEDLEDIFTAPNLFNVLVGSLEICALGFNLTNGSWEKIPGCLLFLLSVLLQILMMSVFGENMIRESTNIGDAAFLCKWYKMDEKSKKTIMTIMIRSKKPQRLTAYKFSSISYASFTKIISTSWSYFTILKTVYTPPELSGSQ
Procedure: as §1, §2, §3

[5] = tested on: HarmOR repertoire; experiment: Responses of the 28 functional HarmORs across odorant doses (PCA of oocyte currents); type: cell-based, Helicoverpa armigera; details: odorant 10^−7 M
Source text: Vectors quantifying the responses of the 28 ORs to each odorant were projected onto a 3D landscape. This 3D representation captured 78.34% (10^−4 M), 65.11% (10^−5 M), 68.89% (10^−6 M), and 84.52% (10^−7 M) of the variation in the original 28D data set across different odorant concentrations. […] In addition, the capacity of the H. armigera odor space was highly dependent on odorant concentration. As the concentrations of odorants decreased, their positions in the odor space converged, with the ability to discriminate different odorants diminishing.
as §2, §3
Graphs and data statistics of OR response spectra, dose responses, EAG, and behavioral experiments were generated by Prism 7 (GraphPad Software, La Jolla, CA). A heat map was generated in Excel 2010 (Microsoft Corporation, WA). […] For tuning breadth analysis, the kurtosis values (K) were calculated by SPSS 22 (SPSS Inc., Chicago, IL) and were used to define the tuning spectra width, where smaller K values represent broader tuning spectra (fig. 1B). […]

[6] = target: HarmOR12 (Helicoverpa armigera, UniProt A0A172QGF5); experiment: Xenopus oocyte two-electrode voltage clamp, HarmOR12 + Orco; type: cell-based
Sequence of HarmOR12 (A0A172QGF5 entry or part of it): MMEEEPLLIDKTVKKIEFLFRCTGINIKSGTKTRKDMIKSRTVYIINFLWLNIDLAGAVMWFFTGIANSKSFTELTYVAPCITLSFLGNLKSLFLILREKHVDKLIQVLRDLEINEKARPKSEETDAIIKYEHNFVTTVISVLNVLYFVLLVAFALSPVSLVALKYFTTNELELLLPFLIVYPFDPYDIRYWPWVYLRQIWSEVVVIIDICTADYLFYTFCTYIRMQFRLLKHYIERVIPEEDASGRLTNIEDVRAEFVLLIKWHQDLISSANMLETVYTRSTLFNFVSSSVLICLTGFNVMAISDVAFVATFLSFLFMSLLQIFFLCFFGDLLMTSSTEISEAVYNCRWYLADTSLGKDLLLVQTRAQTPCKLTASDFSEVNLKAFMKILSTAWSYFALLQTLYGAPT
Source text: as §4, §5, §3

[7] = target: T1, HarmOR27 (Helicoverpa armigera, UniProt A0A7T3KAG1); experiment: Xenopus oocyte two-electrode voltage clamp, HarmOR27 + Orco; type: cell-based; details: HarmOR27; dose response in oocytes; unit M; read-out: EC50
T1 sequence (A0A7T3KAG1 1-426): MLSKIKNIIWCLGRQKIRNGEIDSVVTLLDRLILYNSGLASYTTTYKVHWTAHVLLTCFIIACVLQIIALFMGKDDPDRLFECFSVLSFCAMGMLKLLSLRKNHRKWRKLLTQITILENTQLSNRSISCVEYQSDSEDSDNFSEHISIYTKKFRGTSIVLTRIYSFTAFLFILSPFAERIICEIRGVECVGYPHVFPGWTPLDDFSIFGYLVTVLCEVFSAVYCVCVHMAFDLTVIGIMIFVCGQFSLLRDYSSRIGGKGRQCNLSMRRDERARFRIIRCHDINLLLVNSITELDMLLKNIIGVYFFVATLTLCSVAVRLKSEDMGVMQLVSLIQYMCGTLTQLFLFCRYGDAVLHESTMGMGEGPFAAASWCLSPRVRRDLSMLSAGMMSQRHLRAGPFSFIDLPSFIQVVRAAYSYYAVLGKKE
Procedure: as §1, §2, §3

[8] = tested on: H. armigera moth antennae; experiment: Electroantennography (EAG), wild-type vs HarmOR42 knock-out moths; type: in vivo, Helicoverpa armigera; details: single odorants, 1 μg
Source text: We next conducted a loss-of-function study by generating a HarmOR42-lacking H. armigera strain by CRISPR/Cas9 targeting the first coding exon. Homozygous mutants were obtained with a large segment deletion of 203 bp and a 6-bp nonhomologous insertion in the genome (fig. 6B), introducing a premature stop codon in the coding sequence. […] The most likely hypothesis is that HarmOR42 is not the major receptor for sensing this compound in H. armigera. As a control, we tested the response of male moths to the sex pheromone component Z11-16: Ald that is not a ligand of HarmOR42. As expected, we observed no difference between the EAG responses of mutant and wild-type moths to this compound.
The antennae of 2- to 3-day-old virgin male and female moths were cut at the base of the flagellum. After removing the tip, one antenna was inserted between two glass electrodes filled with 0.1 M KCl solution. In each test, a 10-μl solution of each odorant was added onto a piece of filter paper (0.5 cm × 0.5 cm) and then inserted into a Pasteur pipette. About 100 ng/μl stock solutions of individual odorants and different doses of the mixture IAC were prepared with paraffin oil. A continuous airflow of 30 ml/s was produced by a stimulus controller (CS-55, Syntech, Kirchzarten, Germany). Odor stimulation was controlled by a puff of purified air (0.2 s at 10 ml/s airflow) from the CS-55. EAG signals were amplified with a 10× AC/DC headstage preamplifier (Syntech) and further acquired with an Intelligent Data Acquisition Controller (IDAC-4-USB, Syntech) ([Cao et al. 2016]). The signals were recorded, monitored, and analyzed using Syntech EAG-software (Syntech, Germany). The EAG response values for each compound were calculated by subtracting the value of the same antennae corresponding to a solvent blank of paraffin oil.

[9] = target: HarmOR42 (Helicoverpa armigera, UniProt A0A7T3KAF6); experiment: Xenopus oocyte two-electrode voltage clamp, HarmOR42 + Orco; type: cell-based; details: 67 odorants at 10^−4 M
Sequence of HarmOR42 (A0A7T3KAF6 entry or part of it): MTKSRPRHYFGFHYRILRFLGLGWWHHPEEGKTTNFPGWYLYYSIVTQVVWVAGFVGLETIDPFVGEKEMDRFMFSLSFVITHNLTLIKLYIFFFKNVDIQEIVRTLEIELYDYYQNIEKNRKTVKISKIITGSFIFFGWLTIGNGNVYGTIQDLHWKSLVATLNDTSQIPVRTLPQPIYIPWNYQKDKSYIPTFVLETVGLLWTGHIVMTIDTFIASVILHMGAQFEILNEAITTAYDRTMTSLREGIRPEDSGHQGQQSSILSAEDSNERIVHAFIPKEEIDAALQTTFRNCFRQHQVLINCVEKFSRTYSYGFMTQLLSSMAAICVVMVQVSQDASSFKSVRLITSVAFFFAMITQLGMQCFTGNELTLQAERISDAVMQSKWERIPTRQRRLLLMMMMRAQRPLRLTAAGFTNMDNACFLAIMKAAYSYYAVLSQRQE
Source text: In preliminary screening, we used a high dosage (10^−4 M) of odorants. […] Most functional ORs responded robustly to multiple odorants. The strongest response (up to ∼6,000 nanoampere, nA) we detected was that of HarmOR42 toward the aromatic compound PAA. Further, the response profiles of the 28 HarmORs appeared to be highly differentiated, with no apparent overlap in their tuning spectra (with the exception of HarmOR12 and 36) according to functional cluster analysis (fig. 1A).
as §1, §2, §3

[10] = target: T2, HarmOR40 (Helicoverpa armigera, UniProt A0A7T3KBF4); experiment: Xenopus oocyte two-electrode voltage clamp, HarmOR40 + Orco; type: cell-based; details: HarmOR40; dose response in oocytes; unit M printed in text only; read-out: EC50
T2 sequence (A0A7T3KBF4 1-401): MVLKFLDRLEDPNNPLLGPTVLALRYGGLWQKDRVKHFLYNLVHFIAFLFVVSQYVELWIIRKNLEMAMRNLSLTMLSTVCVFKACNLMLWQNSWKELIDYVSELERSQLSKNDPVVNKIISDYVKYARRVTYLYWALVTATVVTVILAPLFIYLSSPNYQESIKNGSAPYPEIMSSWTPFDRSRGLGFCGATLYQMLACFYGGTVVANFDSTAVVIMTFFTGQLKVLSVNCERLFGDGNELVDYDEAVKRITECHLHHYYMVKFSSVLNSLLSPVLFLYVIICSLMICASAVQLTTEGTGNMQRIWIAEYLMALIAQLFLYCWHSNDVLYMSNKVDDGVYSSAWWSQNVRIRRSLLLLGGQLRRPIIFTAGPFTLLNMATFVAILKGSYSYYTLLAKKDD
Procedure: as §1, §2, §3

[11] = target: HarmOR23 (Helicoverpa armigera, UniProt A0A7T3KAE3); experiment: Xenopus oocyte two-electrode voltage clamp, HarmOR23 + Orco; type: cell-based; details: dose response in oocytes, unit M printed in text only
Sequence of HarmOR23 (A0A7T3KAE3 entry or part of it): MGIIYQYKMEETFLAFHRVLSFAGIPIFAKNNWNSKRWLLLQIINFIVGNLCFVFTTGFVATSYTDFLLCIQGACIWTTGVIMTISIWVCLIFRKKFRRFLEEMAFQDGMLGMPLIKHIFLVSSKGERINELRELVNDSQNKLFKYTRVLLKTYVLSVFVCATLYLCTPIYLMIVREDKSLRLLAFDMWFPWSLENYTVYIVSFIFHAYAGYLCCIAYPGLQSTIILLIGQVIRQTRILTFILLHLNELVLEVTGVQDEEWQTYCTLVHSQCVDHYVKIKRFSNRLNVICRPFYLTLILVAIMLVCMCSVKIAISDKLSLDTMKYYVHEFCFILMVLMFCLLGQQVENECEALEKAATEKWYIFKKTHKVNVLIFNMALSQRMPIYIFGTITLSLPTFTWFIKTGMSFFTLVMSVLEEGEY
Procedure: as §1
as §2, with “CA). […]” for “CA).”

[12] = HarmOR12, dose response in oocytes, unit M, read-out: EC50

Sequence of HarmOR59 (A0A7T3KAU6 entry or part of it): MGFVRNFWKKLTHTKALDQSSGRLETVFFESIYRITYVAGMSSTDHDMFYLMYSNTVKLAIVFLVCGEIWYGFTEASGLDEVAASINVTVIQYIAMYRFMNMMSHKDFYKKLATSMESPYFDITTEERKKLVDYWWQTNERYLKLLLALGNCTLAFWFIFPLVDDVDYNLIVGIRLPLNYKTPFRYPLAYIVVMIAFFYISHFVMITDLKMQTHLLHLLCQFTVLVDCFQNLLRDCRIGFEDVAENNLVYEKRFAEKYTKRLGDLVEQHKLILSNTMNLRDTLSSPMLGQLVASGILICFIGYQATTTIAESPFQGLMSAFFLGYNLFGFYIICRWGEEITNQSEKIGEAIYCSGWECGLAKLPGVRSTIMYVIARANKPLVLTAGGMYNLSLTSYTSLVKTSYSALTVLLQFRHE

Work on CCC/C=C/CO [(E)-2-Hexen-1-ol] yielded an EC50 [1] of 1190 µM and an EC50 [2] of 24 µM.
In the case of CCCCCC1CCCC(=O)O1 (centres unmarked) [δ-Decanolactone], the EC50 [3] is reported as 8.16 µM.
With C=CC(C)(O)CCC=C(C)C (centres unmarked) [Linalool] the EC50 ([4]; EC50, HarmOR36) was 1.16 µM, the “response of the HarmOR repertoire” value [5] was “still responded” and the EC50 [6] was 21.2 µM.
CC(C)=CCCC(C)CCO (stereo not drawn) [β-Citronellol] was tested, and the EC50 ([4]; HarmOR36, read-out: EC50) was 4.68 µM and the EC50 [6, 12] was 80.1 µM.
CCC/C=C\CO [(Z)-2-Hexen-1-ol] was tested, and the EC50 [2] was 16.5 µM.
(±)-Citronellal showed an EC50 [7] of 333 µM.
In the case of OCCc1ccccc1 [2-Phenylethanol], the “EAG response of HarmOR42 knock-out mutants compared with wild-type moths” value [8] is reported as “no significant difference”, the EC50 ([1]; HarmOR59, dose response in oocytes, unit M, read-out: EC50) is reported as 2.91 µM and the “ligand tuning of HarmOR42” value [9] is reported as “minor ligand”. The “response of the HarmOR repertoire” value [5] was “still responded”.
With CC1(C)[C@H]2CC=C(CO)[C@@H]1C2 [(1R)-(-)-Myrtenol] the EC50 ([2]; HarmOR52, dose response in oocytes, unit M, read-out: EC50) was 17.1 µM.
CCC/C=C/COC(C)=O [(E)-2-Hexenyl acetate] was tested, and the EC50 [3] was 5.02 µM.
In the case of CC(=O)OC/C=C(\C)CCC=C(C)C [Geranyl acetate], the EC50 [10] is reported as 7.69 µM and the EC50 [11] is reported as 5.1 µM.
Compound C=C[C@](C)(O)CCC=C(C)C [(-)-Linalool] has an EC50 ([4]; HarmOR36, read-out: EC50) of 1.14 µM and an EC50 [6, 12] of 13.7 µM.
